Measurements: patent US20250109141A1, “BRD4 PROTEIN DEGRADER COMPOUND, AND PREPARATION METHOD AND USE THEREOF” (Miracure Biotechnology Limited, priority 2023, published 2025)

Tests used:
22RV1 = experiment: Cell proliferation assay (CellTiterGlo, 72 h), 22RV1; format: cell-based; settings: Homo sapiens, 22Rv1, 72 h; read-out: 22Rv1 ATP average IC50
Description: All incubations were performed at 37° C. in a humidified carbon dioxide incubator.
(§1) The cells were seeded in a 96-well plate (white wall/transparent bottom) at 5000 cells/well and cultured overnight.
(§2) On day 2, A stock solution of the compound at a concentration of 10 mM was subjected to an 8-fold serial dilution to obtain 8 concentration points. 2 μL of the compound solution at each concentration point was added to 98 μL of fresh medium, and the mixture was mixed homogeneously. Then, 5 μL of the compound solution diluted in the medium at each concentration point was added to 100 μL of overnight medium containing the cells, and 2 replicates were set for each concentration. The mixture was cultured for 72 h.
(§3) After 72 h of compound treatment, the plate was equilibrated to room temperature, 100 μL of CellTiterGlo (Promega) was added. The mixture was mixed homogeneously for 2 min, left to stand at room temperature for 10 min, and then read for luminescence values on a SpectraMax M5 microplate reader to evaluate cell viability. The positive control was 1% Tween-20 and the negative control was 0.1% DMSO. IC50 was generated by 4-parameter non-linear regression fitting in GraphPad Prism.

LNCaP = experiment: Cell proliferation assay (CellTiterGlo, 72 h), LNCaP; format: cell-based; settings: Homo sapiens, LNCap cells, 72 h compound treatment, read-out: LNCap ATP average IC50
Description: The cell line used was 22RV1 or LNCaP, and the medium was RPMI-1640 containing 10% FBS and antibiotics. All incubations were performed at 37° C. in a humidified carbon dioxide incubator.
On day 1, cells were digested with 0.25% trypsin (containing EDTA) and collected by centrifugation.
as §1, §2, §3

BRD4 [1] = molecular target: T1, BRD4 (Homo sapiens, UniProt O60885); experiment: BRD4 degradation assay (Western-blot / Simple Western) in LNCap; format: cell-based; settings: LNCap cells, target content as percentage of control (DMSO = 100%)
Description: The mixture was centrifuged for 5 min. […] The PVDF membrane was cut and labeled. […] Images were acquired and analyzed.

BRD4 [2] = molecular target: T1, BRD4; experiment: BRD4 degradation assay (Western-blot / Simple Western) in 22RV1; settings: 22RV1 cells, target content as percentage of control (DMSO = 100%)

SMILES: COc1ccc2c(c1)C(c1ccc(C#CCNO)cc1)=N[C@@H](CC(=O)OC(C)(C)C)c1nnc(C)n1-2 [Compound 9130]
- IC50 (22RV1): < 0.05 µM
- IC50 (LNCaP): < 0.05 µM
- BRD4 degradation of LNCap (200 nM 5 h) (BRD4 [1]): A (A<20%)
- BRD4 degradation of 22RV1 (200 nM 5 h) (BRD4 [2]): B (20%<B<50%)

SMILES: COc1ccc2c(c1)C(c1ccc(/C=C/CN)cc1)=N[C@@H](CC(=O)OC(C)(C)C)c1nnc(C)n1-2 [Compound 9131]
- IC50 (22RV1): 0.05 to 0.2 µM
- IC50 (LNCaP): < 0.05 µM
- BRD4 degradation of LNCap (200 nM 5 h) (BRD4 [1]): A (A<20%)
- BRD4 degradation of 22RV1 (200 nM 5 h) (BRD4 [2]): B (20%<B<50%)

SMILES: COc1ccc2c(c1)C(c1ccc(C#CCN)cc1)=N[C@@H](Cc1nccs1)c1nnc(C)n1-2 [Compound 9139]
- IC50 (22RV1): 0.05 to 0.2 µM
- IC50 (LNCaP): < 0.05 µM
- BRD4 degradation of LNCap (200 nM 5 h) (BRD4 [1]): A (A<20%)
- BRD4 degradation of 22RV1 (200 nM 5 h) (BRD4 [2]): B (20%<B<50%)

SMILES: COc1ccc2c(c1)C(c1ccc(/C=C/CN)cc1)=N[C@@H](Cc1nccs1)c1nnc(C)n1-2 [Compound 9140]
- IC50 (22RV1): > 0.5 µM
- IC50 (LNCaP): 0.05 to 0.2 µM
- BRD4 degradation of LNCap (200 nM 5 h) (BRD4 [1]): B (20%<B<50%)
- BRD4 degradation of 22RV1 (200 nM 5 h) (BRD4 [2]): B (20%<B<50%)

SMILES: COc1ccc2c(c1)C(c1ccc(/C=C/CNOC(C)=O)cc1)=N[C@@H](CC(=O)OC(C)(C)C)c1nnc(C)n1-2 [Compound 9146]
- IC50 (22RV1): < 0.05 µM
- IC50 (LNCaP): < 0.05 µM
- BRD4 degradation of LNCap (200 nM 5 h) (BRD4 [1]): A (A<20%)
- BRD4 degradation of 22RV1 (200 nM 5 h) (BRD4 [2]): A (A<20%)

SMILES: COc1ccc2c(c1)C(c1ccc(C#CCNO)cc1)=N[C@@H](Cc1nccs1)c1nnc(C)n1-2.Cl [Compound 9174]
- IC50 (22RV1): 0.2 to 0.5 µM
- IC50 (LNCaP): 0.05 to 0.2 µM
- BRD4 degradation of LNCap (200 nM 5 h) (BRD4 [1]): B (20%<B<50%)
- BRD4 degradation of 22RV1 (200 nM 5 h) (BRD4 [2]): C (50%<C<80)

SMILES: COc1ccc2c(c1)C(c1ccc(/C=C/CNO)cc1)=N[C@@H](CC(=O)OC1(C)CC1)c1nnc(C)n1-2 [Compound 9185]
- IC50 (22RV1): < 0.05 µM
- IC50 (LNCaP): < 0.05 µM
- BRD4 degradation of LNCap (200 nM 5 h) (BRD4 [1]): A (A<20%)
- BRD4 degradation of 22RV1 (200 nM 5 h) (BRD4 [2]): B (20%<B<50%)
